Tested on: S. aureus ATCC 25923
Experiment: Phototoxicity test c.2) (BlueV light source, emission maximum approx. 420 nm, CFU count)
Assay type: cell-based, Staphylococcus aureus
Conditions: Staphylococcus aureus, ATCC25923, light or radiation study, 5 min, irradiation 5 minutes, approx. 420 nm, 17.5 mW/cm^2, 5.3 J/cm^2, vs reference control; for log reduction at 10 µM: read-out: Effectiveness against S. aureus: Reduction in CFU in log10 at concentration of 10 μM; for log reduction at 50 µM: read-out: Effectiveness against S. aureus: Reduction in CFU in log10 at concentration of 50 μM
Description: A sample of the bacterial cell Staphylococcus. aureus (ATCC number: 25923) or Escherichia. coli (ATCC number: 25922) was removed from a cryo-freeze culture and cultured under aerobic conditions at 37° C. and 175 rpm overnight in an orbital shaker (MAXQ4000, Thermo Scientific, Dubuque, Iowa, USA). Growth was carried out in 20 mL Todd-Hewitt broth (Carl Roth, Karlsruhe, Germany) supplemented with 0.3% of yeast extract (AppliChem, Darmstadt, Germany). In a second experiment, the photosensitizers (PS) used were dissolved in Millipore water and adjusted to various concentrations. 25 μL of a bacterial suspension grown overnight ( 108/mL) was incubated with 25 μL of photosensitizer solution of the various concentrations at room temperature for 10 seconds in darkness in a 96-well plate. Next, the suspension was irradiated for 5-20 minutes. For the irradiation, the light source BlueV from […], Germany) was used, which emits light from 380 to 480 nm (emission maximum at approximately 420 nm). The applied energy density was 17.5 mW/cm^2. Each experiment was accompanied by three controls in order to exclude side effect of the irradiation/photosensitizer (PS) on the survival of the bacteria: (i) no PS, only light (=light control), (ii) no light, only PS (=dark control) and (iii) neither light nor PS (=reference control). […] All of the tests were carried out four times. […] All of the remaining PS were tested against S. aureus ATCC 25923 (FIGS. 24-33). FIGS. 21-33 show the logarithmic reduction after illumination with respect to the reference control. […] The irradiation period was 5 minutes (emission maximum at approximately 420 nm) for an applied intensity of 17.5 mW/cm^2, i.e. an applied light energy (dosage) of 5.3 J/cm^2. The average reference control (arithmetic mean with standard deviation) (no light, no PS) was 3.9×10^8/mL. The logarithmic reduction after illumination is shown with respect to the reference control.

SMILES	log reduction at 10 µM	log reduction at 50 µM
Cl.Cl.Cl.Cl.NCCOc1ccc(/C=C/C(=O)CC(=O)/C=C/c2ccc(OCCN)c(OCCN)c2)cc1OCCN [Curcumin 03 hydrochloride]	> 4	> 5
COc1cc(/C=C/C(=O)CC(=O)/C=C/c2ccc(OCCN)c(OC)c2)ccc1OCCN.Cl.Cl [Curcumin 01a hydrochloride]	> 3	> 5

— patent US11191855B2, “1,7-diaryl-1,6-heptadiene-3,5-dione derivatives, methods for the production and use thereof” (UNIVERSITÄTSKLINIKUM REGENSBURG, priority 2015, dated 2021)
